Measurements taken from US20060210479A1 (Dow Global Technologies Inc., priority 2004, published 2006).
Several values for one entry are separate records, joined by “and”; a condition that tells them apart may be missing. Identical values can stand only once. Like-named read-outs stand apart in the source and are kept apart here.

Assays:
Caco-2 cells = settings: 1 mM
HLAC cells = settings: for EuQCTME Cell Binding (fluorescence per well): 1 mM
SK-MES cells = settings: for EuQCTME Cell Binding (fluorescence per well): 1 mM
HSPC194 protein = HSPC194 protein (Homo sapiens, UniProt Q9P0S9); assay: Elution of HSPC194 from affinity support column by compounds; settings: symbols not defined
HSPC194 protein, sequence (Q9P0S9 whole entry): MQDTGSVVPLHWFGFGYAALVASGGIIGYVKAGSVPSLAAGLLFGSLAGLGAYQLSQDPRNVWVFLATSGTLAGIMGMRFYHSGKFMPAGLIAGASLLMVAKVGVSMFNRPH
Excerpt: Purified HSPC194 protein was captured on an affinity support column. The unbound contaminants, which have no affinity for the ligand, are washed through the column, leaving the HSPC194 protein bound to the matrix.

[1] = tested on: DMBA-induced tumor tissue of buccal cheek pouch; settings: 2 mM solution topical, 10 minutes; for Fluorescence/mg Cytoplasm / Fluorescence/mg Membrane: readings Adjusted Volume CNT*mm2
Caco-2 cell line = assay: Chelate permeability: fluorescence of cytoplasm and membrane fractions; format: cell-based, human
C-33A cervical cells = settings: read-out: Chelate Concentration Producing 50% Inhibition of Cancer Cell Growth, MTS, 96 hour continuous exposure
Procedure: (§1) To assess whether or not chelate treatment of cancer cells could produce a net modulation in cell growth, the overall growth inhibitory effect of chelates on various cancer cell lines was tested. The concentration of chelate necessary to produce 50% growth inhibition was measured, as determined by detection of the formazan product of cellular […] of 3-(4,5-dimethylthiazol-2-yl)-5-(3-carboxymethoxyphenyl)-2-(4-sulfophenyl)-2H-tetrazolium, inner salt (MTS).

[2] = tested on: CaCo-2 colorectal adenocarcinoma cells; settings: read-out: Chelate Concentration Producing 50% Inhibition of Cancer Cell Growth, MTS, 96 hour continuous exposure
Procedure: as §1

[3] = tested on: MDA-231 breast adenocarcinoma cells
Procedure: as §1

[4] = tested on: HLaC head & neck squamous cell carcinoma cells; settings: read-out: Chelate Concentration Producing 50% Inhibition of Cancer Cell Growth, MTS, 96 hour continuous exposure
Procedure: as §1

[5] = tested on: MDA-231-M breast adenocarcinoma cells, metastatic clone; settings: read-out: Chelate Concentration Producing 50% Inhibition of Cancer Cell Growth, MTS, 96 hour continuous exposure
Procedure: as §1

[6] = tested on: NCM460 normal human colon epithelial cells; settings: read-out: Chelate Concentration Producing 50% Inhibition of Cancer Cell Growth; NCM460 control line; MTS; 96 hour continuous exposure
Procedure: as §1

[7] = tested on: LnCaP prostate adenocarcinoma cells
Procedure: as §1

[8] = tested on: DU-145 prostate adenocarcinoma cells
Procedure: as §1

[9] = tested on: SK-MES lung non-small cell squamous carcinoma cells; settings: read-out: Chelate Concentration Producing 50% Inhibition of Cancer Cell Growth, MTS, 96 hour continuous exposure
Procedure: as §1

[10] = tested on: Caki-1 renal cell carcinoma cells; settings: read-out: Chelate Concentration Producing 50% Inhibition of Cancer Cell Growth, MTS, 96 hour continuous exposure
Procedure: as §1

[11] = tested on: HT-29 colon adenocarcinoma cells; settings: read-out: Chelate Concentration Producing 50% Inhibition of Cancer Cell Growth, MTS, 96 hour continuous exposure
Procedure: as §1

[12] = tested on: etoposide-induced (apoptotic) HEK293 cells; assay: Permeability of chelates to apoptotic cells, fluorescence of fractions; format: cell-based, human
Procedure: The human kidney transformed HEK293 cells (obtained from the ATCC) were grown in Eagle's Minimum Essential Medium (EMEM) supplemented with 10% (v/v) heat-inactivated fetal bovine serum, sodium pyruvate, nonessential amino acids and antibiotics in a humidified 5% CO2 atmosphere at 37° C. Medium and supplements were purchased from Gibco bRL (Grand Island, N.Y.). Etoposide was obtained from Sigma (St. Louis, Mo.) and prepared as 20 mM solution in dimethyl sulfoxide (DMSO). For treatments, etoposide was applied to the HEK293 cultures at 1:1000 dilution (final concentration of 20 μM) after cell became 75% confluent. As a control, cells were fed with medium containing 0.1% DMSO in the absence of etoposide. After treatment with etoposide, cells were incubated in a humidified 5% CO2 at 37° C. for 24 hours. HEK293 cells were collected by removing treatment medium and washed 2 times with 10 mM HEPES buffer. Final cell pellets were resuspended in a small amount of HEPES and stored at 4° C. for further study.
Cells were grown to confluence in T-150 flasks (about 2×10^6 cells). […] After treatment, the chelate or analogue supernatant was discarded and the cells were rinsed three times at room temperature with 10 mM HEPES. Cells were then removed from the flask by manual scraping. Cells were transferred to a 50-mL conical tube and centrifuged (400×g) for 5 minutes and the test material removed. Remaining cells were rinsed twice with cold 10 mM HEPES. Cells were used in cell binding assays.

NCM-460 cells = settings: for EuQCTME Cell Binding (fluorescence per well): 1 mM

Procedure for human cancer cell lines: To assess whether or not chelate treatment of cancer cells could produce a net modulation in cell growth, the overall growth inhibitory effect of chelates on various cancer cell lines was tested. The concentration of chelate necessary to produce 50% growth inhibition was measured, as determined by detection of the formazan product of cellular degradation of 3-(4,5-dimethylthiazol-2-yl)-5-(3-carboxymethoxyphenyl)-2-(4-sulfophenyl)-2H-tetrazolium, inner salt (MTS).

For `CCOP(=O)([O-])CN1CCN(Cc2ccc3cc(C)ccc3n2)CCN(CP(=O)([O-])OCC)CCN(CP(=O)([O-])OCC)CC1.[Eu+3]` [Eu-QCTME, Eu(III) N-(6-methyl-2-quinolylmethyl)-N′,N″,N′″-tris(methylenephosphonic acid ethyl ester)-1,4,7,10-tetraazacyclododecane], the “EuQCTME Cell Binding (fluorescence per well)” value (Caco-2 cells; 2 min) was 4,708, the “EuQCTME Cell Binding (fluorescence per well)” value (Caco-2 cells; 5 min) was 3,391 and the “EuQCTME Cell Binding (fluorescence per well)” value (Caco-2 cells; 15 min) was 6,806. For the same molecule, the “EuQCTME Cell Binding (fluorescence per well)” value (Caco-2 cells; 30 min) was 11,168, the “EuQCTME Cell Binding (fluorescence per well)” value (Caco-2 cells; 45 min) was 10,872 and the “EuQCTME Cell Binding (fluorescence per well)” value (Caco-2 cells; 60 min) was 21,176. For the same molecule, the “EuQCTME Cell Binding (fluorescence per well)” value (Caco-2 cells; 120 min) was 29,389, the “EuQCTME Cell Binding (fluorescence per well)” value (Caco-2 cells; 180 min) was 31,510 and the “EuQCTME Cell Binding (fluorescence per well)” value (Caco-2 cells; 240 min) was 4,575. For the same molecule, the “EuQCTME Cell Binding (fluorescence per well)” value (HLAC cells; 2 min) was 15,807, the “EuQCTME Cell Binding (fluorescence per well)” value (HLAC cells; 5 min) was 20,493 and the “EuQCTME Cell Binding (fluorescence per well)” value (HLAC cells; 15 min) was 13,704. For the same molecule, the “EuQCTME Cell Binding (fluorescence per well)” value (HLAC cells; 30 min) was 6,300, the “EuQCTME Cell Binding (fluorescence per well)” value (HLAC cells; 45 min) was 10,068 and the “EuQCTME Cell Binding (fluorescence per well)” value (HLAC cells; 60 min) was 3,206. The “EuQCTME Cell Binding (fluorescence per well)” value (HLAC cells; 120 min) was 21,877, the “EuQCTME Cell Binding (fluorescence per well)” value (HLAC cells; 180 min) was 6,510 and the “EuQCTME Cell Binding (fluorescence per well)” value (HLAC cells; 240 min) was 2,401. The “Totals: Normalized total area under each curve (AUC)” value (from here on “Totals: Normalized total area”) (HLAC cells; over 240 min) was 51, the “cancer cell lines significantly inhibited compared to control” value (human cancer cell lines) was 8 of 10 cancer cell lines were significantly inhibited and the IC50 (human cancer cell lines; read-out: Half-maximum growth inhibition concentration, range over examined cancer cell lines, 96 hour continuous exposure) was 16 to 140 µM. For the same molecule, the time course cytotoxicity (human cancer cell lines; up to 48 hours, most malignant cell lines) was “lack of measurable cytotoxicity”, the “EuQCTME Cell Binding (fluorescence per well)” value (SK-MES cells; 2 min) was 21,983 and the “EuQCTME Cell Binding (fluorescence per well)” value (SK-MES cells; 5 min) was 11,756. For the same molecule, the “EuQCTME Cell Binding (fluorescence per well)” value (SK-MES cells; 15 min) was 8,588, the “EuQCTME Cell Binding (fluorescence per well)” value (SK-MES cells; 30 min) was 7,237 and the “EuQCTME Cell Binding (fluorescence per well)” value (SK-MES cells; 45 min) was 9,513. For the same molecule, the “EuQCTME Cell Binding (fluorescence per well)” value (SK-MES cells; 60 min) was 5,358, the “EuQCTME Cell Binding (fluorescence per well)” value (SK-MES cells; 120 min) was 8,159 and the “EuQCTME Cell Binding (fluorescence per well)” value (SK-MES cells; 180 min) was 5,682. For the same molecule, the “EuQCTME Cell Binding (fluorescence per well)” value (SK-MES cells; 240 min) was 15,625, the “Totals: Normalized total area” value (SK-MES cells; over 240 min) was 28 and the “Elution of HSPC194 10 μM” value (HSPC194 protein; compound at 10 μM) was 0. The “Elution of HSPC194 50 μM” value (HSPC194 protein; compound at 50 μM) was 0, the “fluorescence in the cytoplasm of tumor tissue compared to normal tissue” value [1] was “significantly greater fluorescence” and the “Fluorescence/mg Cytoplasm” value ([1]; Tumor 1) was 3524. The “Fluorescence/mg Membrane” value ([1]; Tumor 1) was 1670, the “Fluorescence/mg Cytoplasm” value ([1]; Tumor 2) was 3659 and the “Fluorescence/mg Membrane” value ([1]; Tumor 2) was 1676. For the same molecule, the “fluorescence in the membrane fractions, dose response” value (Caco-2 cell line; 0-2000 μM, 2 hours) was “detectable quantity of fluorescence”, the “fluorescence in the cytoplasm, dose response” value (Caco-2 cell line; 0-2000 μM, 2 hours, compared to PZ-HPV-7) was “significant increases in fluorescence” and the “Fluorescence/mg Cytoplasm” value (Caco-2 cell line; 1 mM chelate, 2 h, Table 4) was 4339. The “Fluorescence/mg Membrane” value (Caco-2 cell line; 1 mM chelate, 2 h, Table 4) was 2524, the IC50 (C-33A cervical cells) was 41 µM and the IC50 [2] was 134 µM. For the same molecule, the “inhibitory activity, time course MTS” value ([3]; MDA-231, 500 μM, 24 hours) was “showed inhibitory activity”, the growth inhibition ([3]; MDA-MB-231, 500 μM, 24 hours exposure) was “over 30%” and the IC50 ([3]; read-out: Chelate Concentration Producing 50% Inhibition of Cancer Cell Growth, MDA-231, MTS, 96 hour continuous exposure) was 39.6 µM. For the same molecule, the IC50 [4] was 21.9 µM, the IC50 [5] was 46.8 µM and the IC50 [6] was 123 µM and 124 µM. For the same molecule, the growth inhibition ([7]; LNCAP, 500 μM, 24 hours exposure) was “over 30%”, the IC50 ([7]; read-out: Chelate Concentration Producing 50% Inhibition of Cancer Cell Growth, LnCaP, MTS, 96 hour continuous exposure) was 46.4 µM and the “inhibitory activity, time course MTS” value ([8]; 500 μM, 24 hours) was “showed inhibitory activity”. It also gave an IC50 ([8]; read-out: Chelate Concentration Producing 50% Inhibition of Cancer Cell Growth, MTS, 96 hour continuous exposure) of 54.4 µM, an IC50 [9] of 140 µM and an IC50 [10] of 16 µM. For the same molecule, the IC50 [11] was 15.8 µM, the “permeability to apoptotic induced HEK293 cells” value [12] was “permeable” and the “Fluorescence/mg Membrane” value ([12]; HEK293 Apoptotic (etoposide 20 μM, 24 hours), 1 mM chelate, 2 hours) was 1697. For the same molecule, the “EuQCTME Cell Binding (fluorescence per well)” value (NCM-460 cells; 2 min) was 2,757, the “EuQCTME Cell Binding (fluorescence per well)” value (NCM-460 cells; 5 min) was 3,325 and the “EuQCTME Cell Binding (fluorescence per well)” value (NCM-460 cells; 15 min) was 14,042. For the same molecule, the “EuQCTME Cell Binding (fluorescence per well)” value (NCM-460 cells; 30 min) was 18,535, the “EuQCTME Cell Binding (fluorescence per well)” value (NCM-460 cells; 45 min) was 18,737 and the “EuQCTME Cell Binding (fluorescence per well)” value (NCM-460 cells; 60 min) was 20,666. For the same molecule, the “EuQCTME Cell Binding (fluorescence per well)” value (NCM-460 cells; 120 min) was 2,388, the “EuQCTME Cell Binding (fluorescence per well)” value (NCM-460 cells; 180 min) was 1,598 and the “EuQCTME Cell Binding (fluorescence per well)” value (NCM-460 cells; 240 min) was 16,682. For the same molecule, the “Totals: Normalized total area” value (NCM-460 cells; over 240 min) was 44.
